Data reported in US20220305003A1, “METHODS OF TREATING CANCER WITH AN INHIBITOR OF ZNF827” (CHILDREN'S MEDICAL RESEARCH INSTITUTE, priority 2019, published 2022).

T1: ZNF827 ZnF1-9 deleted (Homo sapiens)
T1 chain: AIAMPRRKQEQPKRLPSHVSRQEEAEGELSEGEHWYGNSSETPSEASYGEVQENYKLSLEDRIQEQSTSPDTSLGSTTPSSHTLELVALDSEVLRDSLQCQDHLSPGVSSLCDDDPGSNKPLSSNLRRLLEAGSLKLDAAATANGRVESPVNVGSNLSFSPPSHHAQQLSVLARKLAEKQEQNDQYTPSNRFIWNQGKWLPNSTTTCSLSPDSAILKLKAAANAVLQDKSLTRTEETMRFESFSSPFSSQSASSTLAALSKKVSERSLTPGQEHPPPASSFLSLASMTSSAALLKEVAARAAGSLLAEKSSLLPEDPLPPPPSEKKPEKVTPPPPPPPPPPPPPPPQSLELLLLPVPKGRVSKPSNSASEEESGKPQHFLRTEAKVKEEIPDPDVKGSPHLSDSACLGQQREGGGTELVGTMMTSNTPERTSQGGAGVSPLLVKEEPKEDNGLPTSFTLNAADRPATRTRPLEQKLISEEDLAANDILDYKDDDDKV

T2: ZNF827 ZnF1-3 deleted (Homo sapiens, UniProt Q17R98 SEQ:4-997)
T2 chain: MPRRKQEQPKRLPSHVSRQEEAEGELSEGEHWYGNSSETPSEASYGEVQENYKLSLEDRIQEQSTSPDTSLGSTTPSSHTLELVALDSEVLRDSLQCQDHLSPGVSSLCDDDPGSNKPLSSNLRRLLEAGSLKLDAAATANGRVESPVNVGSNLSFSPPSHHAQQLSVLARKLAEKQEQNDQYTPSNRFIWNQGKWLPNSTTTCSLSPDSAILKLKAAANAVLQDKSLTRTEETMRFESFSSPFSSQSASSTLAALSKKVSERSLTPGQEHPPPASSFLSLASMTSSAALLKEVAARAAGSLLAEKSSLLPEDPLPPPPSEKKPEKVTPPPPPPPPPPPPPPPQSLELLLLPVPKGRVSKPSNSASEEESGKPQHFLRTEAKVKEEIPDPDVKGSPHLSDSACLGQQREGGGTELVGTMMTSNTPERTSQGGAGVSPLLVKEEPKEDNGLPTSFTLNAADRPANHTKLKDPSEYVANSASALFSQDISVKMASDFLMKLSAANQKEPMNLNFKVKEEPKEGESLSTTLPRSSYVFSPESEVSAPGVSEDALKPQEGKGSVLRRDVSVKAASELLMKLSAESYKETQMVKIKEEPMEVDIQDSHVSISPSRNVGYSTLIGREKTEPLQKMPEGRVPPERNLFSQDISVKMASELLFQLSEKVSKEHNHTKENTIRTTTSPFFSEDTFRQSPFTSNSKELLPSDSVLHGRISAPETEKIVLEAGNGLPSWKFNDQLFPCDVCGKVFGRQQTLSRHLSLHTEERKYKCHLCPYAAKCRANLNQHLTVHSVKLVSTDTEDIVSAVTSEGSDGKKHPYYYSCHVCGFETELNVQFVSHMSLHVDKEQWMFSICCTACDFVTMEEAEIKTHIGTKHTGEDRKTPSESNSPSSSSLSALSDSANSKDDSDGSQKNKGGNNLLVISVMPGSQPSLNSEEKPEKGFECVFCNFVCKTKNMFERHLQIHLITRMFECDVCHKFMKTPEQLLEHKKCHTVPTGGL


How the values were obtained:
[1] = tested on: HT1080 and HT1080 6TG cells; assay: γH2AX and ZNF827 foci by immunofluorescence; settings: topotecan 2 μg/mL 24 hr vs unchallenged
[2] = target: T1, ZNF827 ZnF1-9 deleted; assay: EMSA; interaction abolished; settings: tags: HaloTag (pHTN), expressed in HEK 293T, tag removed by HaloTEV cleavage; label: 32P (gamma)
Procedure: (§1) Purified proteins were quantified using a BCA assay using the Pierce™ BCA Protein Assay Kit according to the manufacturer's instructions. Equal amounts of purified proteins were incubated in binding buffer (20 mM HEPES-KOH, pH7.9, 100 mM KCl, 0.8 mM ZnCl₂, 0.2 mM EDTA, 5% glycerol, 0.5 mM DTT and 0.5 mM PMSF) with 6.25 μg/mL poly (dI:dC) and 50 ng/μL BSA on ice for 20 minutes. ˜0.12 nM (˜2.5 fmol) γ-³²P labelled DNA oligonucleotide (see Table 3) probes were added to samples and incubated on ice for another 30 minutes. Binding reactions were loaded onto an 8% native acrylamide/bisacrylamide (19:1, Biorad) gel pre-run at 100V in 0.5× TB buffer (89 mM Tris, 89 mM boric acid) for 20 minutes. Gels were electrophoresed at 150 V for 150 minutes at 4° C., dried at 65° C. for 45 minutes, and then exposed to a Phosphor screen overnight. Gel images were obtained by scanning the screens with a Typhoon FLA9500 Imager (GE Life Sciences).

[3] = target: T2, ZNF827 ZnF1-3 deleted; assay: EMSA; interaction abolished; settings: tags: HaloTag (pHTN), expressed in HEK 293T, tag removed by HaloTEV cleavage; label: 32P (gamma)
Procedure: as §1

Row | Molecule | ZNF827 foci induction [1] | γH2AX foci induction [1] | binding result [2] | binding result [3]
1 | CC[C@@]1(O)C(=O)OCc2c1cc1n(c2=O)Cc2cc3c(CN(C)C)c(O)ccc3nc2-1 [topotecan] | striking induction of ZNF827 | efficiently induced γH2AX foci |  | 
2 | TTAGGGTTAGGGTTAGGG (ssDNA) [ss telomeric G rich oligo] |  |  | no binding | no binding
